The results in this text go back to ChEMBL document CHEMBL1201862, “PubChem BioAssay data set” (2004).

Activity calls are given as the source filed them.

Usually IC50 stands for the midpoint of a concentration-inhibition curve. The term Ki denotes a dissociation constant, usually derived from enzyme kinetics or from competition with a known ligand. By EC50 is commonly meant the concentration that produces a half-maximal response.

In assay [1] the target is T1, Methionyl-tRNA synthetase, putative (Trypanosoma brucei brucei, UniProt Q38C91).
T1 sequence (Q38C91 whole entry): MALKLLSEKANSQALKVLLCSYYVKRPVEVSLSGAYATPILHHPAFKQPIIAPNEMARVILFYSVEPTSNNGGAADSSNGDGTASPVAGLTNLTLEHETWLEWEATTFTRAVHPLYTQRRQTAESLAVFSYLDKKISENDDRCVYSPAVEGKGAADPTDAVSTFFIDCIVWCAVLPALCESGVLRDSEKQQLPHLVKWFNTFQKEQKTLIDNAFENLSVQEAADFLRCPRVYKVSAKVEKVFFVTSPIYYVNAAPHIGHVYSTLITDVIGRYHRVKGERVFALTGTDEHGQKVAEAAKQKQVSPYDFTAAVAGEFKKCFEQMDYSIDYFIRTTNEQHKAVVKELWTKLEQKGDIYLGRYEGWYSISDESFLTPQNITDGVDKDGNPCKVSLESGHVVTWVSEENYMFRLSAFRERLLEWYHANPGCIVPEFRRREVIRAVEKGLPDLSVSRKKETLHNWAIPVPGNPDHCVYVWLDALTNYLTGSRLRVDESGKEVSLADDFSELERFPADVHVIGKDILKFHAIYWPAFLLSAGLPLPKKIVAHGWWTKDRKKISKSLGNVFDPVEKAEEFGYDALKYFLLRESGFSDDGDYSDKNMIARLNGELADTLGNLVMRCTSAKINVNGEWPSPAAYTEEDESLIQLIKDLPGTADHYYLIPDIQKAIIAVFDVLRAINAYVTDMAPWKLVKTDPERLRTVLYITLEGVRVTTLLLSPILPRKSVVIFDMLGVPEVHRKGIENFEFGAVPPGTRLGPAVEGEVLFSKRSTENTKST
The class given is functional, Trypanosoma brucei brucei strain 927/4 GUTat10.1.

Assay [2] in a line: Counterscreen for inhibitors of Trypanosoma brucei methionyl tRNA synthetase (MetRS): Luminescence-based cell-based high throughput dose response assay to identify compounds that are cytotoxic to Jurkat human T lymphocyte cells. The class given is functional.
The target of assay [3] is T1, Methionyl-tRNA synthetase, putative. The class given is functional, Trypanosoma brucei brucei strain 927/4 GUTat10.1. The source holds these as a separate data set.
The target of the next assay is T2, fMet-Leu-Phe receptor (Homo sapiens, UniProt P21462).
T2 sequence (P21462 whole entry): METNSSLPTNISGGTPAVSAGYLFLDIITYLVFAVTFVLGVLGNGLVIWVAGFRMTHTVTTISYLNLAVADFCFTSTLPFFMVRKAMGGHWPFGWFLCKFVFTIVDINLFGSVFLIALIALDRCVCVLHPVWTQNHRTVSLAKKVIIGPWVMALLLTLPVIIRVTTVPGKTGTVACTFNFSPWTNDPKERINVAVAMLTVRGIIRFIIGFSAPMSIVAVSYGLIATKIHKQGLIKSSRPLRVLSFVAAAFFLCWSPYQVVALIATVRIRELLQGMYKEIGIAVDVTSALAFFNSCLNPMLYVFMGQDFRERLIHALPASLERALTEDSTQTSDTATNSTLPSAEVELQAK
Briefly: FPR ligands, dose response (AID 519). Format: functional.

A further assay has as its target Genome polyprotein (dengue virus type 2, UniProt P29990). Briefly: Dengue-2 NS5 methyltransferase inhibitors, primary screen, biochemical, confirmation dose response (AID 588689). Format: functional.
The next assay concerns the target T3, Leucine aminopeptidase (Plasmodium falciparum 3D7, UniProt Q8IL11).
T3 sequence (Q8IL11 whole entry): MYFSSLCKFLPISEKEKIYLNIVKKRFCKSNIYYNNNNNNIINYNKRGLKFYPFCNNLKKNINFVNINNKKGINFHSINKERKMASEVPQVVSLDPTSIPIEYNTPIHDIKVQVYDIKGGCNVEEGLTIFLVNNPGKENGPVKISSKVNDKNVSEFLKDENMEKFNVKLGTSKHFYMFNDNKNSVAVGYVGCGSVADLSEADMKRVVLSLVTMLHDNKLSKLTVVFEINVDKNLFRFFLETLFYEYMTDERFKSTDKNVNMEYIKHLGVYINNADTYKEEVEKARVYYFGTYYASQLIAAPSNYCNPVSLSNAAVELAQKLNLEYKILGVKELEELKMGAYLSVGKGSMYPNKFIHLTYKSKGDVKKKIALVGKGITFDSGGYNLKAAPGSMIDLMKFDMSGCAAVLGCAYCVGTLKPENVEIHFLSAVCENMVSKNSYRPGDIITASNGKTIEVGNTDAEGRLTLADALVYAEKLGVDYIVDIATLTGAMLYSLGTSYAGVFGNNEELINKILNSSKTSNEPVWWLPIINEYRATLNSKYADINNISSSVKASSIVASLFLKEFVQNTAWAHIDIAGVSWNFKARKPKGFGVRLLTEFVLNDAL
In words: P. falciparum M17LAP inhibitors, primary screen, biochemical, fluorogenic H-Leu-NHMec substrate, 1536-well (AID 1619). Format: functional.

Assay [4] is described as follows: cells.
Assay [5] can be described thus: C. albicans growth with fluconazole, confirmation, fluorescence, retest (AID 2467). The class given is functional, cell-based.
Assay [6] has as its target T4, Oxysterols receptor LXR-beta (Homo sapiens, UniProt P55055).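 Note: Cell-based luminescence dose-response assay of agonist activity at LXR, run as a confirmatory counterscreen to a daf-12 agonist screen; HEK293 cells with Gal4-LXR fusion and GAL4-driven luciferase reporter; agonist potency from rising luciferase signal of a Gal4-LXR reporter.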
T4 sequence (P55055 whole entry): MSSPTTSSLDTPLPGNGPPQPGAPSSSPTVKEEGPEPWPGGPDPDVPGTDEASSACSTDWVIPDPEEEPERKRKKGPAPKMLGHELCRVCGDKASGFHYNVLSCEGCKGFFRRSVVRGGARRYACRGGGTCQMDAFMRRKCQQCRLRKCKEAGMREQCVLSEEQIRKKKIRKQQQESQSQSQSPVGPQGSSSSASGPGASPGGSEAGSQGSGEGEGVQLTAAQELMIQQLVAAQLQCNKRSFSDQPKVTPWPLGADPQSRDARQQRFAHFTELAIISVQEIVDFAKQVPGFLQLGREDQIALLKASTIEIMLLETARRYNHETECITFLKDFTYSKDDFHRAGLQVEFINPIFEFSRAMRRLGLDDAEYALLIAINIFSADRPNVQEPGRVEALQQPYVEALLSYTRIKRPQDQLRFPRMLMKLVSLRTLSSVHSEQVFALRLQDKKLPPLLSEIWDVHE
Format: functional, cell-based.

Assay [7] can be described thus: NIH-3T3 fibroblast cytotoxicity, dose response, cytotoxicity control, cell-based, fluorescence, Alamar Blue, secondary assay (AID 2327).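 Note: NIH-3T3 mouse fibroblasts cultured with fluconazole at 8 µg/mL.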 Format: functional. For orientation: Resazurin is reduced to fluorescent resorufin, in cell work by metabolically active cells.
Assay [8] concerns the target T5, Trace amine-associated receptor 1 (Homo sapiens, UniProt Q96RJ0).
T5 sequence (Q96RJ0 whole entry): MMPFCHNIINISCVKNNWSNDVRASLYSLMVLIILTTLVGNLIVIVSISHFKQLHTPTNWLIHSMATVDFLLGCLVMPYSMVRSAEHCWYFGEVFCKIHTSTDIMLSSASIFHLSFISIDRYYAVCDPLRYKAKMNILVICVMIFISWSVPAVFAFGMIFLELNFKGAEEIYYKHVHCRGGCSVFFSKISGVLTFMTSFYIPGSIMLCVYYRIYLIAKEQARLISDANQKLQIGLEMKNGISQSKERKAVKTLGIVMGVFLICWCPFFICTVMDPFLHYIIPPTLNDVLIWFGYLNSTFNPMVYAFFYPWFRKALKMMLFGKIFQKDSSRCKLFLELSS
In words: Counterscreen for agonists of the human trace amine associated receptor 1 (hTAAR1): Fluorescence-based cell-based high throughput dose response assay to identify hTAAR1 agonist that also desensitize TAAR1 receptor response. The class given is functional. For orientation: The purpose of a counterscreen is to sort out artefacts and off-target activity.

The nature of assay [9]: cells. Format: functional, cell-based.
Assay [10] in a line: Luminescence Cell-Based Dose Response HTS to Identify Activators of Luciferase Translation or Activity in H4 […] Cells. [Related pubchem assays: 1829 (Project Summary), 1814 (Primary HTS)]. Format: functional.
Assay [11] is described as follows: cells. The class given is functional, cell-based. This is another data set of the same source.
The next assay deals with H4. Briefly: Luminescence Cell-Based Dose Response HTS to Identify Activators of 5'UTR Stem-Loop Driven Prion Protein mRNA Translation in H4 Neuroglioblastoma Cells. [Related pubchem assays: 1829 (Project Summary), 1814 (Primary HTS)]. The class given is functional. Conditions: Homo sapiens.
For assay [12], the target named is T5, Trace amine-associated receptor 1. In words: Fluorescence-based cell-based high throughput dose response assay to identify agonists of the human trace amine associated receptor 1 (TAAR1). The class given is functional.
The target of assay [13] is T6, Nuclear receptor subfamily 0 group B member 1 (Homo sapiens, UniProt P51843).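 Note: HEK293T cells transfected with SF-1 and DAX-1 plus StAR promoter luciferase reporter.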
T6 sequence (P51843 whole entry): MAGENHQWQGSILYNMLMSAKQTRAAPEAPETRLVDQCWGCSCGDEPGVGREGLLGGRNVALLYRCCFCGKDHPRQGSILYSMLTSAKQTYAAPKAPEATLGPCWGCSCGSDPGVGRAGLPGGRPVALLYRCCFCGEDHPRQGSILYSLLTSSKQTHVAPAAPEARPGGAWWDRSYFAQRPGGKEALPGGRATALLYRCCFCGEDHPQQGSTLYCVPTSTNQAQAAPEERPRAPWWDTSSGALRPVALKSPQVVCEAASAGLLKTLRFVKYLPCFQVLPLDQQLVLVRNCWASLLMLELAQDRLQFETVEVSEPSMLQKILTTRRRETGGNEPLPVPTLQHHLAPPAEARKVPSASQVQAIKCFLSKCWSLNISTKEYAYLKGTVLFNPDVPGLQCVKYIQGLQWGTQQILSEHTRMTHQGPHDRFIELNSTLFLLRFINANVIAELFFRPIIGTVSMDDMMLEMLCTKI
Format: functional, cell-based.

Assay [14] is described as follows: cells. The class given is functional, cell-based. The source holds these as a separate data set.

Sequence of Genome polyprotein (P29990 2492-3391 limits assumed): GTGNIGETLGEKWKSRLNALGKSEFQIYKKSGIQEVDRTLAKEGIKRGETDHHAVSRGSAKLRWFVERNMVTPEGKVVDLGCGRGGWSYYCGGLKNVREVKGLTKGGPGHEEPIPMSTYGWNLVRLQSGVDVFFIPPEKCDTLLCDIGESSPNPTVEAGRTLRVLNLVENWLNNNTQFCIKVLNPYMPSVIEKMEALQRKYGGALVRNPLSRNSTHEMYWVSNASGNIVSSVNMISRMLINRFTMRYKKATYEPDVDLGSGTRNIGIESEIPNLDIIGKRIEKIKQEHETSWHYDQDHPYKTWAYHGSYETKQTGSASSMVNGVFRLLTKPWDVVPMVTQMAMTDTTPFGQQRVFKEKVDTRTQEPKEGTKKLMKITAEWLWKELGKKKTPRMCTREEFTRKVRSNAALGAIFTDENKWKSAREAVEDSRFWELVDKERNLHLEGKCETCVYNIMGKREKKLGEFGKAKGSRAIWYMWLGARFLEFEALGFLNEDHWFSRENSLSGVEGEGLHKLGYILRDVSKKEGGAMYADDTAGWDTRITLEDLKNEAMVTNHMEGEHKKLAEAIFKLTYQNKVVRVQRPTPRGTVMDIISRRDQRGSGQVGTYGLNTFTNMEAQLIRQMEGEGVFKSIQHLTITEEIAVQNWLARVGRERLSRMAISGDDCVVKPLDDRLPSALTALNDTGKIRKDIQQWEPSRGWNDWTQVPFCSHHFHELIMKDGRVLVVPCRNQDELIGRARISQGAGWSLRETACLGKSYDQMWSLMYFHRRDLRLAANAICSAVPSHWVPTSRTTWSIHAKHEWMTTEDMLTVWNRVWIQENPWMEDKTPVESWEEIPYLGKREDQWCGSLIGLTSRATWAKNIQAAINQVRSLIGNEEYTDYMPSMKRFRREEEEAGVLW

On to `NC(=O)c1cccc(-c2ccnc3c2CC(C(=O)Nc2ccc(Cl)cc2)O3)c1` (stereo unspecified), for which the figures for the IC50 in assay [1], in [2] and in [3] were 8.03 µM (active), 58.1 µM (inactive) and 18.7 µM (inactive), respectively.

As for `Cc1ccc(C2C(C(=O)c3ccc(Br)cc3)=C(O)C(=O)N2Cc2ccco2)o1` (stereo unspecified), the Ki at fMet-Leu-Phe receptor was > 66.7 µM (inactive). For the same compound, the values for the IC50 at Genome polyprotein and on Leucine aminopeptidase were > 100 µM (active) and 66.4 µM (active), respectively.

In the case of `COc1ccc(-c2csc(-c3ccccc3)n2)c(OC)c1`, the EC50 in the assay “cells [4]” was > 67.5 µM (inactive); in assay [5], 6.64 µM (active); in assay [6], > 67.5 µM (inactive); in assay [7], > 160 µM (inactive).

As for `Clc1ccc(Cc2nn3c(-c4ccncc4)nnc3s2)cc1`, the Ki on fMet-Leu-Phe receptor is > 66.7 µM (inactive).

On to `O=C(c1c(Cl)nc2sccn12)N(C(=O)c1c(Cl)nc2sccn12)c1ccc(Cl)cn1`, for which the EC50 (in “cells [4]”; in assay [6]) was > 67.5 µM (inactive) throughout.

On to `CC(C)OC(=O)c1cc(NC(=O)C2C3CCC(O3)C2C(=O)O)cc(C(=O)OC(C)C)c1` (stereo unspecified), for which, on fMet-Leu-Phe receptor, the Ki is 41.5 µM (inactive).

With `Cc1cc(C2=NN=C(NCCc3ccccc3)SC2)c(C)n1CC1CCCO1` (stereo unspecified), the IC50 in [8] is 2.84 µM (active); in the assay “cells [9]” it was > 29.9 µM (inactive). Moreover, the concentration for a half-maximal effect (EC50) in assay [10] is 61.9 µM (active); in the assay “cells [11]”, > 29.9 µM (inactive); in the assay on H4 it was 13 µM (active); in assay [12], 0.553 µM (active).

On to `O=C(Nc1ccc(N2CCCC2)cc1)c1cccc(F)c1`, for which the IC50 (in [13]; in “cells [14]”) was > 67.5 µM (inactive) in each case.

In the case of `Oc1[nH]cnc2nc(-c3ccc(N(CCCl)CCCl)cc3)nc1-2`, the IC50 in the assay “cells [14]” is > 67.6 µM (inactive).

Consider `O=C(NC1=NCCS1)c1sc2cc(F)ccc2c1Cl`, for which the EC50 (in “cells [4]”; in assay [6]) was > 67.6 µM (inactive) each time.

Regarding `O=c1[nH]cnc2nc(-c3ccc(N(CCCl)CCCl)cc3)[nH]c12`, the IC50 in assay [13] was > 67.6 µM (inactive).

In the case of `COC(=O)/C(=C\Nc1ccccc1)NC(=O)c1ccc(Cl)cc1Cl`, the values for the IC50 in [1], in [2] and in assay [3] were 2.71 µM (active), 83.3 µM (inactive) and 6.89 µM (active), respectively.

On to `Nc1cc(Oc2ccc(Cl)cc2Cl)nc(N)n1`, for which the IC50 in assay [1] is 22.8 µM (inactive); in assay [2] it was 83.2 µM (inactive); in assay [3], 29.4 µM (inactive).

Consider `CCCC(=O)N1CCCC(c2cc(C(=O)Nc3ccc4c(c3)OCO4)no2)C1` (stereo unspecified), for which the IC50 (in assay [13]; in the assay “cells [14]”) was > 67.6 µM (inactive) throughout.

Consider `O=C(NCCc1ccccc1)C(c1ccncc1)N(C(=O)c1csnn1)C1CC1` (stereo unspecified), for which the half-maximal inhibitory concentration (IC50) in [8] is 7.59 µM (active); in “cells [9]” it was > 29.9 µM (inactive). Further, the figures for the EC50 (in “cells [11]”; in assay [12]) were > 29.9 µM (inactive) and 2.11 µM (active), respectively.

With `CCN1C(=O)C(CC(=O)Nc2ccc(OC)cc2)N(CCc2ccccc2)C1=S` (stereo unspecified), the IC50 in assay [1] was 15 µM (inactive); in assay [2] it was 38.9 µM (inactive); in assay [3], 23.5 µM (inactive).
